Experimental data taken from the NIST ThermoML archive (doi:10.1021/je7002447).
± gives the expanded uncertainty stated by the source.

Tests used:
[1] = excess molar enthalpy (molar enthalpy of mixing); xn = mol fraction of the nth substance listed; conditions: 298.15 K, 101.3 kPa, Liquid, Flow calorimetry
[2] = 298.15 K; 101.33 kPa; Liquid

ClCCCc1ccccc1 [(3-chloropropyl)benzene] + c1ccccc1
[1]
Conditions	excess molar enthalpy [kcal/mol]
x1 = 0.0913	-0.00229 ± 0.000215
x1 = 0.1843	-0.00478 ± 0.000287
x1 = 0.2316	-0.00547 ± 0.000311
x1 = 0.3113	-0.00717 ± 0.000359
x1 = 0.376	-0.00822 ± 0.000406
x1 = 0.4455	-0.00868 ± 0.000406
x1 = 0.5466	-0.00868 ± 0.000406
x1 = 0.6164	-0.0082 ± 0.000406
x1 = 0.7068	-0.00705 ± 0.000359
x1 = 0.7834	-0.00569 ± 0.000311
x1 = 0.8282	-0.00476 ± 0.000287
x1 = 0.8577	-0.00416 ± 0.000263

ClCc1ccccc1 [(chloromethyl)benzene]
Conditions	mass density [kg/m3]
[2]	1094.82 ± 0.65

ClCc1ccccc1 [(chloromethyl)benzene] + CCCCc1ccccc1
[1]
Conditions	excess molar enthalpy [kcal/mol]
x1 = 0.1194	0.033 ± 0.00139
x1 = 0.145	0.0402 ± 0.00167
x1 = 0.2028	0.0481 ± 0.00198
x1 = 0.2532	0.0596 ± 0.00239
x1 = 0.3114	0.0663 ± 0.00263
x1 = 0.4041	0.073 ± 0.00311
x1 = 0.5043	0.0762 ± 0.00311
x1 = 0.5756	0.0752 ± 0.00311
x1 = 0.6439	0.0712 ± 0.00287
x1 = 0.7307	0.0619 ± 0.00263
x1 = 0.7834	0.0522 ± 0.00215
x1 = 0.8444	0.0413 ± 0.00172
x1 = 0.8906	0.0294 ± 0.00124
x1 = 0.9313	0.0204 ± 0.000884

ClCc1ccccc1 [(chloromethyl)benzene] + CCCc1ccccc1
[1]
Conditions	excess molar enthalpy [kcal/mol]
x1 = 0.1315	0.0266 ± 0.00112
x1 = 0.2325	0.038 ± 0.00158
x1 = 0.3124	0.0468 ± 0.00194
x1 = 0.3772	0.0499 ± 0.00206
x1 = 0.4468	0.0527 ± 0.00217
x1 = 0.5478	0.0541 ± 0.00225
x1 = 0.645	0.0484 ± 0.00201
x1 = 0.7079	0.0443 ± 0.00184
x1 = 0.7842	0.0344 ± 0.00143
x1 = 0.8289	0.0245 ± 0.00103
x1 = 0.8791	0.0204 ± 0.000884
x1 = 0.9065	0.0154 ± 0.000669

ClCc1ccccc1 [(chloromethyl)benzene] + CCc1ccccc1
[1]
Conditions	excess molar enthalpy [kcal/mol]
x1 = 0.0962	0.0125 ± 0.000574
x1 = 0.1664	0.0181 ± 0.000789
x1 = 0.2102	0.0209 ± 0.000884
x1 = 0.2853	0.0242 ± 0.00103
x1 = 0.4151	0.0281 ± 0.0012
x1 = 0.5156	0.0284 ± 0.0012
x1 = 0.5866	0.0278 ± 0.00117
x1 = 0.6804	0.025 ± 0.00105
x1 = 0.7395	0.022 ± 0.000932
x1 = 0.8098	0.018 ± 0.000789
x1 = 0.8646	0.0136 ± 0.000598
x1 = 0.8949	0.00999 ± 0.000478

ClCc1ccccc1 [(chloromethyl)benzene] + Cc1ccccc1
[1]
Conditions	excess molar enthalpy [kcal/mol]
x1 = 0.1036	0.00576 ± 0.000311
x1 = 0.1877	0.00925 ± 0.00043
x1 = 0.2574	0.0113 ± 0.000526
x1 = 0.3161	0.0128 ± 0.000574
x1 = 0.3813	0.014 ± 0.000621
x1 = 0.4803	0.0143 ± 0.000645
x1 = 0.581	0.0133 ± 0.000598
x1 = 0.649	0.0124 ± 0.00055
x1 = 0.735	0.0109 ± 0.000502
x1 = 0.7871	0.00944 ± 0.000454
x1 = 0.8809	0.00571 ± 0.000311
x1 = 0.9024	0.00511 ± 0.000287

ClCc1ccccc1 [(chloromethyl)benzene] + Clc1ccccc1
[1]
Conditions	excess molar enthalpy [kcal/mol]
x2 = 0.1118	0.0144 ± 0.000645
x2 = 0.2012	0.0215 ± 0.000908
x2 = 0.2742	0.0245 ± 0.00103
x2 = 0.335	0.0271 ± 0.00115
x2 = 0.4304	0.0287 ± 0.00122
x2 = 0.5312	0.0272 ± 0.00115
x2 = 0.6018	0.0253 ± 0.00108
x2 = 0.6939	0.022 ± 0.000932
x2 = 0.7514	0.0187 ± 0.000813
x2 = 0.8193	0.015 ± 0.000669
x2 = 0.858	0.0123 ± 0.00055

c1ccccc1 [benzene]
Conditions	mass density [kg/m3]
[2]	873.58 ± 0.17

CCCCc1ccccc1 [butylbenzene]
Conditions	mass density [kg/m3]
[2]	856.29 ± 0.68

CCCCc1ccccc1 [butylbenzene] + Clc1ccccc1
[1]
Conditions	excess molar enthalpy [kcal/mol]
x2 = 0.133	-0.00973 ± 0.000454
x2 = 0.1609	-0.0115 ± 0.000526
x2 = 0.2036	-0.0139 ± 0.000621
x2 = 0.2772	-0.0177 ± 0.000765
x2 = 0.3383	-0.0199 ± 0.00086
x2 = 0.4341	-0.0219 ± 0.000932
x2 = 0.535	-0.0209 ± 0.000884
x2 = 0.6054	-0.0194 ± 0.000837
x2 = 0.6971	-0.0164 ± 0.000717
x2 = 0.8036	-0.0133 ± 0.000598
x2 = 0.902	-0.00822 ± 0.000406

Clc1ccccc1 [chlorobenzene]
Conditions	mass density [kg/m3]
[2]	1101.17 ± 0.16

Clc1ccccc1 [chlorobenzene] + CCc1ccccc1
[1]
Conditions	excess molar enthalpy [kcal/mol]
x1 = 0.1075	-0.0131 ± 0.000598
x1 = 0.1308	-0.0157 ± 0.000693
x1 = 0.1671	-0.0186 ± 0.000813
x1 = 0.2864	-0.0276 ± 0.00117
x1 = 0.3111	-0.029 ± 0.00122
x1 = 0.4453	-0.0335 ± 0.00141
x1 = 0.4745	-0.0346 ± 0.00143
x1 = 0.5463	-0.0341 ± 0.00143
x1 = 0.6436	-0.0301 ± 0.00127
x1 = 0.7625	-0.0261 ± 0.0011
x1 = 0.8784	-0.015 ± 0.000669
x1 = 0.9233	-0.00956 ± 0.000454

Clc1ccccc1 [chlorobenzene] + Cc1ccccc1
[1]
Conditions	excess molar enthalpy [kcal/mol]
x1 = 0.1156	-0.0126 ± 0.000574
x1 = 0.2072	-0.0198 ± 0.00086
x1 = 0.2584	-0.0226 ± 0.000956
x1 = 0.3433	-0.0261 ± 0.0011
x1 = 0.4107	-0.0272 ± 0.00115
x1 = 0.5111	-0.0274 ± 0.00115
x1 = 0.6106	-0.0256 ± 0.00108
x1 = 0.6765	-0.023 ± 0.00098
x1 = 0.807	-0.0161 ± 0.000693
x1 = 0.9127	-0.00798 ± 0.000382

Clc1ccccc1 [chlorobenzene] + c1ccccc1
[1]
Conditions	excess molar enthalpy [kcal/mol]
x1 = 0.0804	-0.000502 ± 0.000191
x1 = 0.1272	-0.000669 ± 0.000191
x1 = 0.1794	-0.000932 ± 0.000191
x1 = 0.2258	-0.0011 ± 0.000191
x1 = 0.3043	-0.00122 ± 0.000191
x1 = 0.3684	-0.00131 ± 0.000191
x1 = 0.3962	-0.00139 ± 0.000191
x1 = 0.4666	-0.00136 ± 0.000191
x1 = 0.5384	-0.00129 ± 0.000191
x1 = 0.5675	-0.00131 ± 0.000191
x1 = 0.6363	-0.00117 ± 0.000191
x1 = 0.6999	-0.001 ± 0.000191
x1 = 0.7777	-0.00086 ± 0.000191
x1 = 0.8235	-0.000741 ± 0.000191
x1 = 0.8974	-0.000406 ± 0.000191

CCc1ccccc1 [ethylbenzene]
Conditions	mass density [kg/m3]
[2]	862.55 ± 0.66

CCCc1ccccc1 [propylbenzene]
Conditions	mass density [kg/m3]
[2]	857.62 ± 1.3

CCCc1ccccc1 [propylbenzene] + Clc1ccccc1
[1]
Conditions	excess molar enthalpy [kcal/mol]
x2 = 0.1205	-0.0121 ± 0.00055
x2 = 0.1859	-0.0162 ± 0.000717
x2 = 0.2551	-0.0211 ± 0.000908
x2 = 0.3394	-0.0244 ± 0.00103
x2 = 0.4066	-0.0261 ± 0.0011
x2 = 0.4774	-0.0277 ± 0.00117
x2 = 0.5781	-0.0261 ± 0.0011
x2 = 0.6727	-0.0241 ± 0.00103
x2 = 0.7851	-0.0189 ± 0.000813
x2 = 0.8796	-0.0118 ± 0.000526
x2 = 0.9164	-0.00782 ± 0.000382

Cc1ccccc1 [toluene]
Conditions	mass density [kg/m3]
[2]	862.19 ± 0.18
